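The compound was tested at five concentrations on cells cultured in 96-well plates, with a 48-hour exposure period. At the GI50, growth is halved.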 Active and inactive are the calls of the source. Rule as the data show it: active = GI50 up to about 1.1 µM and inactive = higher.
Columns and labels:
Assay in all cases: growth of human tumour cells (NCI), 48 h
EKVX = test system: EKVX
SF-295 = test system: SF-295
OVCAR-3 = test system: OVCAR-3
MDA-MB-435 = test system: MDA-MB-435
SR = test system: SR
HL-60 = test system: HL-60
K562 = test system: K562
A549 = test system: A549
MOLT-4 = test system: MOLT-4
SN12C = test system: SN12C
T47D = test system: T47D
NCI-H23 = test system: NCI-H23
M14 = test system: M14
DU-145 = test system: DU-145
TK-10 = test system: TK-10
HT-29 = test system: HT-29
LOX IMVI = test system: LOX IMVI
BT-549 = test system: BT-549
SW-620 = test system: SW-620
HCT-15 = test system: HCT-15
MCF7 = test system: MCF7
NCI/ADR-RES = test system: NCI/ADR-RES
UACC-62 = test system: UACC-62
Malme-3M = test system: Malme-3M
UACC-257 = test system: UACC-257
NCI-H522 = test system: NCI-H522
SF-539 = test system: SF-539
HOP-62 = test system: HOP-62
U-251 = test system: U-251
MDA-MB-231 = test system: MDA-MB-231
ACHN = test system: ACHN
OVCAR-5 = test system: OVCAR-5
Hs-578T = test system: Hs-578T
SK-OV-3 = test system: SK-OV-3
CCRF-CEM = test system: CCRF-CEM
HOP-92 = test system: HOP-92
NCI-H460 = test system: NCI-H460
A498 = test system: A498
IGROV-1 = test system: IGROV-1
MDA-N = test system: MDA-N
OVCAR-8 = test system: OVCAR-8
KM12 = test system: KM12
SNB-19 = test system: SNB-19
HCT-116 = test system: HCT-116
786-0 = test system: 786-0
SK-MEL-5 = test system: SK-MEL-5
SK-MEL-2 = test system: SK-MEL-2
SK-MEL-28 = test system: SK-MEL-28
PC-3 = test system: PC-3
NCI-H226 = test system: NCI-H226
RPMI-8226 = test system: RPMI-8226
SNB-75 = test system: SNB-75
COLO 205 = test system: COLO 205
CAKI-1 = test system: CAKI-1
OVCAR-4 = test system: OVCAR-4
UO-31 = test system: UO-31

For `COc1ccc(S(=O)(=O)N2C(=O)CCC2C(=O)NC(N)=O)cc1` (stereo unspecified), the GI50 (EKVX) was > 100 µM (inactive), the GI50 (SF-295) was > 100 µM (inactive) and the GI50 (OVCAR-3) was > 100 µM (inactive). The GI50 (MDA-MB-435) was > 100 µM (inactive), the GI50 (SR) was > 100 µM (inactive) and the GI50 (HL-60) was > 100 µM (inactive). The GI50 (K562) was > 100 µM (inactive), the GI50 (A549) was > 100 µM (inactive) and the GI50 (MOLT-4) was > 100 µM (inactive). The GI50 (SN12C) was > 100 µM (inactive), the GI50 (T47D) was > 100 µM (inactive) and the GI50 (NCI-H23) was > 100 µM (inactive). The GI50 (M14) was > 100 µM (inactive), the GI50 (DU-145) was > 100 µM (inactive) and the GI50 (TK-10) was > 100 µM (inactive). For the same molecule, the GI50 (HT-29) was > 100 µM (inactive), the GI50 (LOX IMVI) was > 100 µM (inactive) and the GI50 (BT-549) was > 100 µM (inactive). For the same molecule, the GI50 (SW-620) was > 100 µM (inactive), the GI50 (HCT-15) was greater than 100 µM and the GI50 (MCF7) was > 100 µM (inactive). The GI50 (NCI/ADR-RES) was > 100 µM (inactive), the GI50 (UACC-62) was > 100 µM (inactive) and the GI50 (Malme-3M) was > 100 µM (inactive). For the same molecule, the GI50 (UACC-257) was > 100 µM (inactive), the GI50 (NCI-H522) was > 100 µM (inactive) and the GI50 (SF-539) was > 100 µM (inactive). The GI50 (HOP-62) was > 100 µM (inactive), the GI50 (U-251) was > 100 µM (inactive) and the GI50 (MDA-MB-231) was > 100 µM (inactive). The GI50 (ACHN) was > 100 µM (inactive), the GI50 (OVCAR-5) was > 100 µM (inactive) and the GI50 (Hs-578T) was > 100 µM (inactive). For the same molecule, the GI50 (SK-OV-3) was > 100 µM (inactive), the GI50 (CCRF-CEM) was > 100 µM (inactive) and the GI50 (HOP-92) was > 100 µM (inactive). The GI50 (NCI-H460) was > 100 µM (inactive), the GI50 (A498) was > 100 µM (inactive) and the GI50 (IGROV-1) was > 100 µM (inactive). The GI50 (MDA-N) was > 100 µM (inactive), the GI50 (OVCAR-8) was > 100 µM (inactive) and the GI50 (KM12) was > 100 µM (inactive). For the same molecule, the GI50 (SNB-19) was > 100 µM (inactive), the GI50 (HCT-116) was > 100 µM (inactive) and the GI50 (786-0) was > 100 µM (inactive). For the same molecule, the GI50 (SK-MEL-5) was > 100 µM (inactive), the GI50 (SK-MEL-2) was > 100 µM (inactive) and the GI50 (SK-MEL-28) was > 100 µM (inactive). The GI50 (PC-3) was > 100 µM (inactive), the GI50 (NCI-H226) was > 100 µM (inactive) and the GI50 (RPMI-8226) was > 100 µM (inactive). For the same molecule, the GI50 (SNB-75) was 0.381 µM (active), the GI50 (COLO 205) was > 100 µM (inactive) and the GI50 (CAKI-1) was > 100 µM (inactive). The GI50 (OVCAR-4) was > 100 µM (inactive) and the GI50 (UO-31) was > 100 µM (inactive).
